From ChEMBL document CHEMBL6083249, “The journey of p38 MAP kinase inhibitors: From bench to bedside in treating inflammatory diseases” (Eur J Med Chem, 2024)

Key:
[1] = Volume of distribution at steady state in Sprague-Dawley rat at 10 mg/kg, iv measured for 24 hrs by LC-MS/MS analysis; type: ADME, organism-based; conditions: in vivo, read-out: Vdss
THP-1 [2] = assay: Antiinflammatory activity against human THP-1 cells assessed as inhibition of LPS-induced TNF-alpha production; type: functional, cell-based
RAW264.7 = assay: Anti-inflammatory activity in LPS-induced mouse RAW264.7 cells assessed as inhibition of IL-6 production; type: functional, cell-based
[3] = Clearance in Sprague-Dawley rat at 10 mg/kg, iv by HPLC-MS analysis; type: ADME, organism-based; conditions: in vivo
THP-1 [4] = assay: Anti-inflammatory activity in human THP-1 cells assessed as inhibition of IL-1beta protein expression incubated for 24 hrs by Western blot analysis; type: functional, cell-based; conditions: THP-1, 24 h
[5] = Tmax in Wistar rat at 10 mg/kg, po by LC-MS/MS analysis; type: ADME, organism-based; conditions: in vivo
[6] = Oral bioavailability in Sprague-Dawley rat at 10 mg/kg by LC-MS analysis; type: ADME, organism-based; conditions: in vivo
[7] = Cmax in Wistar rat at 10 mg/kg, po by LC-MS/MS analysis; type: ADME, organism-based; conditions: in vivo
[8] = AUC in Sprague-Dawley rat at 10 mg/kg, po measured for 24 hrs by LC-MS/MS analysis; type: ADME, organism-based; conditions: in vivo
[9] = Clearance in ICR mouse at 2 mg/kg, iv; type: ADME, organism-based; conditions: in vivo
[10] = Clearance in Wistar rat at 3 mg/kg, iv; type: ADME, organism-based; conditions: in vivo
[11] = Volume of distribution at steady state in ICR mouse at 2 mg/kg, iv; type: ADME, organism-based; conditions: in vivo, read-out: Vdss
[12] = Tmax in ICR mouse at 5 mg/kg, iv; type: ADME, organism-based; conditions: in vivo
[13] = Volume of distribution at steady state in Wistar rat at 3 mg/kg, iv; type: ADME, organism-based; conditions: in vivo, read-out: Vdss
[14] = Cmax in ICR mouse at 5 mg/kg, iv by LC-MS/MS analysis; type: ADME, organism-based; conditions: in vivo
[15] = Cmax in Wistar rat at 3 mg/kg, iv; type: ADME, organism-based; conditions: in vivo
[16] = Oral bioavailability in rat; type: ADME, organism-based; conditions: in vivo
[17] = MRT in ICR mouse at 5 mg/kg, iv by LC-MS/MS analysis; type: ADME, organism-based; conditions: in vivo
[18] = Oral bioavailability in ICR mouse; type: ADME, organism-based; conditions: in vivo
[19] = Clearance in dog; type: ADME, Canis lupus familiaris; conditions: in vivo
[20] = Clearance in rat; type: ADME; conditions: in vivo
[21] = Half life in Beagle dog at 5 mg/kg, po by LC-MS/MS analysis; type: ADME, organism-based, Canis lupus familiaris; conditions: in vivo
[22] = target: Ribosomal protein S6 kinase alpha-1 (Homo sapiens) (UniProt Q15418); assay: Inhibition of RSK1 (unknown origin) at 1 uM relative to control; conditions: values are per cent of control
[23] = target: Ribosomal protein S6 kinase beta-1 (Homo sapiens) (UniProt P23443); assay: Inhibition of S6K1 (unknown origin) at 1 uM relative to control; conditions: values are per cent of control
Homo sapiens [24] = organism: Homo sapiens; assay: Inhibition of PKA (unknown origin) at 1 uM relative to control; conditions: values are per cent of control
[25] = target: Serine/threonine-protein kinase Sgk1 (Homo sapiens) (UniProt O00141); assay: Inhibition of SGK1 (unknown origin) at 1 uM by Z'LYTE kinase assay relative to control; conditions: values are per cent of control
[26] = target: Mitogen-activated protein kinase 1 (Homo sapiens) (UniProt P28482); assay: Inhibition of ERK2 (unknown origin) at 1 uM relative to control; conditions: values are per cent of control
[27] = target: T1, Protein kinase C alpha type (Homo sapiens, UniProt P17252); assay: Inhibition of PKCalpha (unknown origin) at 1 uM in presence of ATP relative to control; conditions: values are per cent of control
[28] = target: Dual specificity tyrosine-phosphorylation-regulated kinase 1A (Homo sapiens) (UniProt Q13627); assay: Inhibition of DYRK1A (unknown origin) at 10 uM relative to control; conditions: values are per cent of control
[29] = target: Casein kinase 2 (Homo sapiens) (UniProt P67870+P68400+P19784+Q8NEV1); assay: Inhibition of CK2 (unknown origin) at 1 uM relative to control; type: protein assay; conditions: values are per cent of control
Homo sapiens [30] = organism: Homo sapiens; assay: Inhibition of CK1 (unknown origin) at 10 uM relative to control; conditions: values are per cent of control
[31] = target: Mitogen-activated protein kinase 8 (Homo sapiens) (UniProt P45983); assay: Inhibition of JNK1alpha1 (unknown origin) at 1 uM relative to control; conditions: values are per cent of control
[32] = target: Dual specificity tyrosine-phosphorylation-regulated kinase 1A (Homo sapiens) (UniProt Q13627); assay: Inhibition of DYRK1A (unknown origin) at 1 uM relative to control; conditions: values are per cent of control
[33] = target: Rho-associated protein kinase 2 (Homo sapiens) (UniProt O75116); assay: Inhibition of ROCK2 (unknown origin) at 1 uM relative to control; conditions: values are per cent of control
[34] = target: MAP kinase-activated protein kinase 5 (Homo sapiens) (UniProt Q8IW41); assay: Inhibition of PRAK (unknown origin) at 1 uM relative to control; conditions: values are per cent of control
Homo sapiens [35] = organism: Homo sapiens; assay: Inhibition of CK1 (unknown origin) at 1 uM relative to control; conditions: values are per cent of control
[36] = target: Dual specificity mitogen-activated protein kinase kinase 1 (Homo sapiens) (UniProt Q02750); assay: Inhibition of MKK1 (unknown origin) at 1 uM relative to control; conditions: values are per cent of control
[37] = target: T1, Protein kinase C alpha type; assay: Inhibition of PKCalpha (unknown origin)
[38] = target: Protein kinase C beta type (Homo sapiens, UniProt P05771); assay: Inhibition of PKCbeta2 (unknown origin)

MAP kinase-activated protein kinase 5 (Homo sapiens), sequence (Q8IW41 whole entry): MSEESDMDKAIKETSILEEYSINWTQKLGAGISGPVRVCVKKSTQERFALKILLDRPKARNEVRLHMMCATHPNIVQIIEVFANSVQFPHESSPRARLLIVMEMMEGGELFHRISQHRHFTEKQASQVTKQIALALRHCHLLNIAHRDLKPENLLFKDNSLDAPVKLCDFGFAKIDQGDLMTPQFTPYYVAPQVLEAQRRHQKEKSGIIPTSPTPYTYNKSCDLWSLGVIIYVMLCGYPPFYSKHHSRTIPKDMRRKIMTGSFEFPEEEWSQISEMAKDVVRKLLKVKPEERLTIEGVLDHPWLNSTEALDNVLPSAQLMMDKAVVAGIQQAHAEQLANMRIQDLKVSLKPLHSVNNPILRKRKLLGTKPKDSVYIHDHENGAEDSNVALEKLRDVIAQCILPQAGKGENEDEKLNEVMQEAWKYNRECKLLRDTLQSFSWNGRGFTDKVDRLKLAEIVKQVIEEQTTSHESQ
Serine/threonine-protein kinase Sgk1 (Homo sapiens), sequence (O00141 whole entry): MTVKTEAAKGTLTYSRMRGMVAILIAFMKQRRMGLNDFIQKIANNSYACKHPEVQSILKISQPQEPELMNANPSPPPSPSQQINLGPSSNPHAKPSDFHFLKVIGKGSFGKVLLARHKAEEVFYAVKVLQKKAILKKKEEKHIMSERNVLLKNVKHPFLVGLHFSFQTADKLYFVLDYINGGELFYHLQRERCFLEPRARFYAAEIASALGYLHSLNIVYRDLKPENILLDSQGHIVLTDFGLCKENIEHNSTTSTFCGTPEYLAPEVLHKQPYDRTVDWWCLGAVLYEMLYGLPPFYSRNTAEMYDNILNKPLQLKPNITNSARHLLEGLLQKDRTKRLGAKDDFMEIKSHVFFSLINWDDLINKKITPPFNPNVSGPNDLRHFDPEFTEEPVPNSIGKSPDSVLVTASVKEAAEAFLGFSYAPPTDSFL
Ribosomal protein S6 kinase alpha-1 (Homo sapiens), sequence (Q15418 whole entry): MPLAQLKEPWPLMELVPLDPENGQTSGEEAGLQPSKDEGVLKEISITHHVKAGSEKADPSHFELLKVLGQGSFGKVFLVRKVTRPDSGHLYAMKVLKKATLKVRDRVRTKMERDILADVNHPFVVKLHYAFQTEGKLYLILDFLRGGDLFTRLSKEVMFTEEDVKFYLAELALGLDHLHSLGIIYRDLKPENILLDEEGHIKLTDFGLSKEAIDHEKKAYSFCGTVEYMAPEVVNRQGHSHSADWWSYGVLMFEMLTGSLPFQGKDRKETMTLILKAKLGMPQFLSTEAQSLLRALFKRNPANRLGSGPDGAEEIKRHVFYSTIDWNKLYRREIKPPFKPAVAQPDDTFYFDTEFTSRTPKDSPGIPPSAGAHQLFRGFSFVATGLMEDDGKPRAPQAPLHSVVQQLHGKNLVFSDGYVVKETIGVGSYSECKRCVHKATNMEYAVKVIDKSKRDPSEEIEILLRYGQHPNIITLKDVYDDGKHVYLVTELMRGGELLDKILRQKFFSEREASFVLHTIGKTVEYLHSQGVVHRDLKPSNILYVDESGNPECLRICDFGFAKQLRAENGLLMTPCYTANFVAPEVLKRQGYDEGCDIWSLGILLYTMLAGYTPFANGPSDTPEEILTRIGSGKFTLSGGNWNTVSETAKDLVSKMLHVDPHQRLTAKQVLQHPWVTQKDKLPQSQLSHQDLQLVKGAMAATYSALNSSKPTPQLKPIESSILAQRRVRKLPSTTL
Mitogen-activated protein kinase 1 (Homo sapiens), sequence (P28482 whole entry): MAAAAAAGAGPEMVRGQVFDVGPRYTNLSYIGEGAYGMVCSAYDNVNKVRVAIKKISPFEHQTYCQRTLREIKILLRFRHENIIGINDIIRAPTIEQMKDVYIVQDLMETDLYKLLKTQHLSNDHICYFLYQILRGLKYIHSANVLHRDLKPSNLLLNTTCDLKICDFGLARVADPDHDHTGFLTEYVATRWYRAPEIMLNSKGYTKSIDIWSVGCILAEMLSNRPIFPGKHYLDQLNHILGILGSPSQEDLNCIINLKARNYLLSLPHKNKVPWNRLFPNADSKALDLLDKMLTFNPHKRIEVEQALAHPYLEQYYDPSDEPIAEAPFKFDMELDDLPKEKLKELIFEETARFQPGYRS
Rho-associated protein kinase 2 (Homo sapiens), sequence (O75116 whole entry, looked up): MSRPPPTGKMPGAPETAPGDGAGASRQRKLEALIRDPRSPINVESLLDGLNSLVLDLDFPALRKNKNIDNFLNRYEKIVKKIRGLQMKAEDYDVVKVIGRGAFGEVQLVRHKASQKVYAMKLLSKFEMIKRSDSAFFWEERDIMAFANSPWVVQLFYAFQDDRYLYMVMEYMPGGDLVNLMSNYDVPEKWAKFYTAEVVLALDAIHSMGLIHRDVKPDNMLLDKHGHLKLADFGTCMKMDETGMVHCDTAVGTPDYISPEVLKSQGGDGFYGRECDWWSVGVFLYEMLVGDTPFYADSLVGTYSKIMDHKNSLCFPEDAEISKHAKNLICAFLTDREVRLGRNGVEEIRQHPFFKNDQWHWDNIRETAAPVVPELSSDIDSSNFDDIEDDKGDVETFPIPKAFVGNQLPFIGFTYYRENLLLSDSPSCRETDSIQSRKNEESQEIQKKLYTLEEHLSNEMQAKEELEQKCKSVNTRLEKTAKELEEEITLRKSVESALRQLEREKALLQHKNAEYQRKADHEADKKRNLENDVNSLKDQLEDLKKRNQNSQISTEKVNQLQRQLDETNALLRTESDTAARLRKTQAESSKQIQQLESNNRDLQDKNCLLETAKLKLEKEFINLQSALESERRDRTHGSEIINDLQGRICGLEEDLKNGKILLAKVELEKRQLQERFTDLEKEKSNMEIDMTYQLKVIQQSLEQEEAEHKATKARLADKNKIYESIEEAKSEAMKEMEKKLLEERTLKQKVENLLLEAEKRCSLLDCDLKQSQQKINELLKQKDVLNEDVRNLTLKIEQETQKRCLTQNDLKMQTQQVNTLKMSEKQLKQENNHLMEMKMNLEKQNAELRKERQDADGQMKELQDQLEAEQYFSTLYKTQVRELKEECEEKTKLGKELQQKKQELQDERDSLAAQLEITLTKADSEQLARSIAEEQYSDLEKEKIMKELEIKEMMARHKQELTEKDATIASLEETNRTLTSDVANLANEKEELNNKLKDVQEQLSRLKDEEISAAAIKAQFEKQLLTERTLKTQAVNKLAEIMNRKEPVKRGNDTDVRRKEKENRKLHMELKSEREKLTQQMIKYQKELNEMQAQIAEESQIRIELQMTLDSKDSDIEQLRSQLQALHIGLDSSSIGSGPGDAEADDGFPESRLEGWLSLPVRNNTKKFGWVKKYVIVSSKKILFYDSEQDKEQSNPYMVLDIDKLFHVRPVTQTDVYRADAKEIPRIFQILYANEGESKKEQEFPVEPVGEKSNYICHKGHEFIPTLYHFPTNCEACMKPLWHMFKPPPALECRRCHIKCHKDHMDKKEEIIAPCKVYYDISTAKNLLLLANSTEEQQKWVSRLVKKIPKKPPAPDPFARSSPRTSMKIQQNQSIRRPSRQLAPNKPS

Cn1c(=O)c(Oc2ccc(F)cc2F)cc2cnc(NC3CCOCC3)nc21 [R-1487]
Vd [1]: 1.94 L/kg
IC50 (THP-1 [2]): 800 nM
EC50 (RAW264.7): 10 nM
clearance [3]: 20.7 mL/min/kg
IC50 (THP-1 [4]): 170 nM
Tmax [5]: 2 h
bioavailability [6]: 29.3%
Cmax [7]: 650 ng/mL
AUC [8]: 2.35 µg/h/mL

CCCNC(=O)c1cn2ncnc(Nc3cc(C(=O)NC4CC4)ccc3C)c2c1C [BMS-582949]
clearance [9]: 4.4 mL/min/kg
clearance [10]: 5.4 mL/min/kg
Vd [11]: 0.9 L/kg
Tmax [12]: 1 h
Vd [13]: 1.1 L/kg
Cmax [14]: 15.3 µM
Cmax [15]: 7 µM
bioavailability [16]: 60%
MRT [17]: 3.3 h
bioavailability [18]: 90%

O=C(CO)N1CCC(c2[nH]nc(-c3ccc(Cl)cc3)c2-c2ccncn2)CC1 [SD-0006]
clearance [19]: 2.92 mL/min/kg
clearance [20]: 4.86 mL/min/kg
half-life [21]: 4.48 h

Cc1ccc(-n2nc(C(C)(C)C)cc2NC(=O)Nc2ccc(OCCN3CCOCC3)c3ccccc23)cc1
residual activity [22]: 59%
residual activity [23]: 119%
residual activity (Homo sapiens [24]): 88%
residual activity [25]: 94%
residual activity [26]: 79%
residual activity [27]: 80%
residual activity [28]: 79%
residual activity [29]: 85%
residual activity (Homo sapiens [30]): 84%
residual activity [31]: 70%
residual activity [32]: 82%
residual activity [33]: 80%
residual activity [34]: 71%
residual activity (Homo sapiens [35]): 87%
residual activity [36]: 71%

C[S+]([O-])c1ccc(-c2nc(-c3ccncc3)c(-c3ccc(F)cc3)[nH]2)cc1 (centres undefined) [SB-203580]
IC50 [37]: > 100000 nM
IC50 [38]: > 50000 nM
